Converted amounts (≈) assume the structure as drawn. Read-outs that look alike come from different tables or passages of the source. Positions of bridges follow the written chain, without caps; N, C: chain ends. Non-standard residues stand in square brackets, D forms with d. Residues, ends and D or L forms follow the SMILES beside them. No end group written: not given here. *: point of attachment. Heptanoyl(5-Me) = CCC(C)CCCC(=O)*; Dab = NCC[C@H](N)C(=O)O
How the values were obtained:
[1] = tested on: P. aeruginosa; experiment: microbe, parasite or virus in culture
Description: (§1) Bacteria. Bacterial clinical isolates, used for initial screening and in previous studies [Greber K E et al., 2017], were anonymously provided by the clinical microbiology laboratory of the University of Pittsburgh medical Center. The panel used for secondary screening was from CDC (Table 4), with resistance profiles data. Bacteria are stored in lock-secured −80° C. freezer and typically retrieved by obtaining single colonies on agar plates prior for subsequent liquid broth cultures. Suspensions of test bacteria were prepared from log phase of growth by diluting overnight cultures at 1:100 with fresh cation-adjusted MHB (MHB2, Millipore Sigma, USA) and incubating for additional 3-4 hours. Bacteria were spun at 3000×g for 10 minutes and the pellet resuspended in test condition media (Millipore Sigma, USA) to determine bacterial turbidity using a Den-1B densitometer (Grant Instruments, USA) at 0.5 McFarland (unit of bacterial density) corresponding to […].
(§2) Antibacterial assays. To examine antibacterial activity, this study used minor modifications of a standard growth inhibition assay endorsed by the Clinical and Laboratory Standards Institute (CLSI), as previously described [Greber K E et al., 2017]. Bacteria were incubated with each of the indicated peptides in MHB2. The bacterial cells were kept in an incubator for 18 hours at 37° C., which is linked to a robotic system that feeds a plate reader every hour with one of 8×96-well plates. This set-up allows the collection of growth kinetic data at A 570 (absorbance at 570 nm) to examine growth inhibition in real time (BioTek Instruments, USA). […] To assess bactericidal properties of the peptide, the assay was modified by using 15% fetal bovine serum (FBS, for a more physiologically relevant test condition) mixed with 25% MHB2 and 60% PBS. Bacterial cells (colony forming unit/mL or CFU/mL) were enumerated after incubating treated bacteria for 3 hours and plating serially diluted samples on broth agar medium at 37° C. overnight. […] For killing kinetics, we slightly modified the bactericidal assay to examine bacterial killing at the MBC (or 2×MBC) as a function of time for up to 3 hours. Data were analyzed using GraphPad Prism software.

[2] = tested on: E. coli; experiment: microbe, parasite or virus in culture
Description: as §1, §2

[3] = tested on: MDR clinical strains of ESKAPE pathogens and E. coli provided by the CDC (AR isolates panel); experiment: Advanced testing, MIC against CDC AR isolates panel; type: cell-based; settings: colistin-resistant strains
Description: as §1, §2

[4] = tested on: human red blood cells; settings: at 16 μM, published data; cited from earlier work
[5] = tested on: MDR panel of gram-negative (GNB) and -positive (GPB) bacterial isolates classified as ESKAPE pathogens
Description: as §1
Antibacterial assays. To examine antibacterial activity, this study used minor modifications of a standard growth inhibition assay endorsed by the Clinical and Laboratory Standards Institute (CLSI), as previously described [Greber K E et al., 2017]. Bacteria were incubated with each of the indicated peptides in MHB2. The bacterial cells were kept in an incubator for 18 hours at 37° C., which is linked to a robotic system that feeds a plate reader every hour with one of 8×96-well plates. This set-up allows the collection of growth kinetic data at A 570 (absorbance at 570 nm) to examine growth inhibition in real time (BioTek Instruments, USA). […] To assess bactericidal properties of the peptide, the assay was modified by using 15% fetal bovine serum (FBS, for a more physiologically relevant test condition) mixed with 25% MHB2 and 60% PBS. Bacterial cells (colony forming unit/mL or CFU/mL) were enumerated after incubating treated bacteria for 3 hours and plating serially diluted samples on broth agar medium at 37° C. overnight. […] Data were analyzed using GraphPad Prism software.

[6] = tested on: S. aureus; experiment: MIC growth inhibition assay in MHB2; type: cell-based, Staphylococcus aureus
Description: as §1, §2

[7] = tested on: A. baumannii; experiment: microbe, parasite or virus in culture; settings: Acinetobacter baumannii
Description: as §1, §2

[8] = tested on: K. pneumoniae; experiment: MIC growth inhibition assay in MHB2; type: cell-based, klebsiella pneumoniae
Description: as §1, §2

[9] = tested on: Enterobacter spp; experiment: MIC growth inhibition assay in MHB2; type: cell-based, Enterobacter spp: EA (aerogenes), EC (cloacae); settings: Enterobacter, CDC, MHB2
Description: as §1, §2

[10] = tested on: E. Faecium; experiment: MIC growth inhibition assay in MHB2; type: cell-based, Enterococcus faecium
Description: as §1, §2

Compound: RRWVRWVRRWVRWVRR [E80]
- MIC [1]: 2 µM

Compound: RRVWRRVRRVWRRVRRVWRRVV [E75]
- MIC [1]: 13 µM

Compound: RRVWRRVRRVWRRVRRVVRRVW [E71]
- MIC [2]: 1 µM
- cross-resistance with colistin [3]: no cross-resistance at all

Compound: RRWVRRVRRVWRRVRRVVRRWV [E4]
- cross-resistance with colistin [3]: no cross-resistance at all

Compound: Ac-LKRVWKRVFKLLKRYWRQLKKPVR-NH2 [SAAP-148]
- red blood cell (RBC) lysis [4]: only moderate

Compound: CCC(C)CCCC(=O)N[C@@H](CCN)C(=O)N[C@H](C(=O)N[C@@H](CCN)C(=O)N[C@H]1CCNC(=O)[C@H]([C@@H](C)O)NC(=O)[C@H](CCN)NC(=O)[C@H](CCN)NC(=O)[C@H](CC(C)C)NC(=O)[C@@H](CC(C)C)NC(=O)[C@H](CCN)NC1=O)[C@@H](C)O (stereo partly drawn) [Colistin, colistin, reference compound] ({Heptanoyl(5-Me)}-[Dab]T[Dab][Dab][Dab][dL]L[Dab][Dab]T; lactam 4-C)
- mean MIC ([5]; GNB and GPB of the initial MDR panel, MHB2): lowest mean MIC
- activity against the GPB strains ([5]; GPB strains of the initial MDR panel (Table 5)): inactive
- MIC ([6]; Staphylococcus aureus, strain SA461, CDC, MHB2): > 16 µM
- MIC ([6]; strain SA462, CDC, MHB2): >16 µM
- MIC ([6]; strain SA463, CDC, MHB2): >16 µM
- MIC ([6]; strain SA561, CDC, MHB2): >16 µM
- MIC ([7]; CDC AR isolate AB288 (colistin resistance not confirmed)): 1 µM (≈ 1.16 µg/mL)
- MIC ([7]; CDC AR isolate AB300 (colistin resistance not confirmed)): 1 µM (≈ 1.16 µg/mL)
- MIC ([7]; CDC AR isolate AB301 (colistin resistance not confirmed)): 1 µM (≈ 1.16 µg/mL)
- MIC ([7]; CDC AR isolate AB303 (colistin resistance not confirmed)): 0.5 µM (≈ 0.578 µg/mL)
- MIC ([7]; strain AB273, CDC, MHB2): 0.5 µM (≈ 0.578 µg/mL)
- MIC ([7]; strain AB274, CDC, MHB2): 0.25 µM (≈ 0.289 µg/mL)
- MIC ([7]; strain AB275 (first line r9), CDC, MHB2): 0.25 µM (≈ 0.289 µg/mL)
- MIC ([7]; strain AB275 (second line r10), CDC, MHB2): 0.5 µM (≈ 0.578 µg/mL)
- MIC ([2]; Escherichia coli, strain Eco541, CDC, MHB2): 1 µM (≈ 1.16 µg/mL)
- MIC ([2]; Escherichia coli, strain Eco543, CDC, MHB2): 8 µM (≈ 9.24 µg/mL)
- MIC ([2]; Escherichia coli, strain Eco546, CDC, MHB2): 0.25 µM (≈ 0.289 µg/mL)
- MIC ([2]; Escherichia coli, strain Eco549, CDC, MHB2): 1 µM (≈ 1.16 µg/mL)
- MIC ([1]; Pseudomonas aeruginosa, strain PA216, CDC, MHB2): 1 µM (≈ 1.16 µg/mL)
- MIC ([1]; Pseudomonas aeruginosa, strain PA229, CDC, MHB2): > 16 µM
- MIC ([1]; Pseudomonas aeruginosa, strain PA230, CDC, MHB2): 1 µM (≈ 1.16 µg/mL)
- MIC ([1]; Pseudomonas aeruginosa, strain PA231, CDC, MHB2): 1 µM (≈ 1.16 µg/mL)
- MIC ([8]; Klebsiella pneumoniae, colistin-resistant CDC AR isolate KP46, read-out: MIC): 4 µM (≈ 4.62 µg/mL)
- MIC ([8]; Klebsiella pneumoniae, colistin-resistant CDC AR isolate KP87, read-out: MIC): > 16 µM
- MIC ([8]; Klebsiella pneumoniae, colistin-resistant CDC AR isolate KP125, read-out: MIC): 8 µM (≈ 9.24 µg/mL)
- MIC ([8]; Klebsiella pneumoniae, colistin-resistant CDC AR isolate KP507, read-out: MIC): 16 µM (≈ 18.5 µg/mL)
- MIC ([8]; Klebsiella pneumoniae, colistin-resistant CDC AR isolate KP1010, read-out: MIC): 16 µM (≈ 18.5 µg/mL)
- MIC ([8]; Klebsiella pneumoniae, colistin-resistant CDC AR isolate KP1041, read-out: MIC): > 16 µM
- MIC ([8]; Klebsiella pneumoniae, colistin-resistant CDC AR isolate KP1045, read-out: MIC): > 16 µM
- MIC ([8]; Klebsiella pneumoniae, strain KP542, CDC, MHB2, read-out: MIC): > 16 µM
- MIC ([8]; Klebsiella pneumoniae, strain KP548, CDC, MHB2, read-out: MIC): 0.25 µM (≈ 0.289 µg/mL)
- MIC ([8]; Klebsiella pneumoniae, strain KP550, CDC, MHB2, read-out: MIC): 0.25 µM (≈ 0.289 µg/mL)
- MIC ([8]; Klebsiella pneumoniae, strain KP552, CDC, MHB2, read-out: MIC): 0.25 µM (≈ 0.289 µg/mL)
- MIC ([8]; strain KPA5, initial MDR panel (Table 5)): colistin-resistant phenotype
- MIC ([9]; strain EA62 (aerogenes)): 2 µM (≈ 2.31 µg/mL)
- MIC ([9]; strain EA547 (aerogenes)): 0.25 µM (≈ 0.289 µg/mL)
- MIC ([9]; strain EC544 (cloacae)): 4 µM (≈ 4.62 µg/mL)
- MIC ([9]; strain EC545 (cloacae)): 2 µM (≈ 2.31 µg/mL)
- MIC ([10]; Enterococcus faecium, strain EF673, CDC, MHB2): > 16 µM
- MIC ([10]; strain EF500, CDC, MHB2): >16 µM
- MIC ([10]; strain EF671, CDC, MHB2): >16 µM
- MIC ([10]; strain EF672, CDC, MHB2): >16 µM

Compound: Cc1onc(-c2ccccc2)c1C(=O)N[C@@H]1C(=O)N2[C@@H]1SC(C)(C)[C@@H]2C(=O)O [Oxa]
- MIC ([6]; strain SA12212): 8 µM (≈ 3.21 µg/mL)
- MIC ([6]; strain SA18710): 4 µM (≈ 1.61 µg/mL)
- MIC ([6]; strain SA49775): 0.25 µM (≈ 0.1 µg/mL)
- MIC ([6]; strain SA-US300): 4 µM (≈ 1.61 µg/mL)
- MIC ([10]; strain EF23614): 0.25 µM (≈ 0.1 µg/mL)
- MIC ([10]; strain EF24670): >16 µM
- MIC ([10]; strain EF26215): 2 µM (≈ 0.803 µg/mL)
- MIC ([10]; strain EF26692): 2 µM (≈ 0.803 µg/mL)

Compound: Cc1nnc(SCC2=C(C(=O)O)N3C(=O)[C@@H](NC(=O)Cn4cnnn4)[C@H]3SC2)s1 [Cefa]
- MIC ([6]; strain SA12212): 16 µM (≈ 7.27 µg/mL)
- MIC ([6]; strain SA18710): 16 µM (≈ 7.27 µg/mL)
- MIC ([6]; strain SA49775): 2 µM (≈ 0.909 µg/mL)
- MIC ([6]; strain SA-US300): 8 µM (≈ 3.64 µg/mL)
- MIC ([10]; strain EF23614): >16 µM
- MIC ([10]; strain EF24670): >16 µM
- MIC ([10]; strain EF26215): 4 µM (≈ 1.82 µg/mL)
- MIC ([10]; strain EF26692): 4 µM (≈ 1.82 µg/mL)

— US20240197823A1, “CATIONIC ANTIMICROBIAL PEPTIDES AND USES THEREOF” (priority 2021, published 2024)
